Experimental data taken from US7488476B2, “B-cell epitope peptides of HSP 65, DNA encoding said peptides, antibodies directed against said peptides and the different uses thereof in the treatment of inflammatory and autoimmune diseases” (priority 1998, dated 2009).

Key:
Lewis rats [1] = experiment: Anti HSP antibodies in Lewis rats immunized with HSP peptides (ELISA); format: in vivo, rat; details: 100 μg peptide in PBS, 3 times IP
Experimental: ELISA: Flat-bottomed 96 well plates (Corning) were coated with mammalian HSP 60 or Mycobacterial HSP 65 (10 μg/ml) in carbonate buffer pH 9.6 overnight at 4° C.
HSP peptides were attached to plates pre-treated with glutaraldehyde according to Kasprzyk et al.. Shortly, plates were coated with 100 μl/well of 5% w/v of glutaraldehyde in PBS for 1 hour at room temp. Plates were washed thoroughly with PBS and peptides (1 μg/100 μl) were added to each well, incubated overnight at 4° C. Plates were shaken dry and blocked with BSA 1% in PBS.
Plates coated with either HSP or peptides were washed again and incubated with rat sera diluted 1:100 with PBS-Tween 0.01% for 90 min. at room temp. After re-washing the plates were incubated with Goat anti rat IgG or IgM conjugated to alkaline-phosphatase for 60 min. at room temp. […] Optical density was measured photometrically at 405 nm.
Modulation of AA by mycobacterial and mammalian HSP peltides: HSP 65 derived peptides were tested for their ability to modulate the appearance or severity of AA in Lewis rats. Rats were immunized with 100 μg of each peptide in PBS, three weeks (3W), 2W and 1W before induction of AA by MT. Control rats received PBS. Rats were bled for testing antibody presence before injection of MT and 30 days post MT injection.
To test whether active immunization with bacterial or mammalian HSP peptides that are recognized by protective immunoglobulins can induce protection against AA, Lewis rats were immunized with the mycobacterial peptides 6, 7, 21, 31, 36, 45, 84, that bound antibodies from resistant Lewis rats (“protective” peptides), with some non-reactive mycobacterial HSP 65 peptides: peptide 26 (residues 151-166), 28 (residues 163-178) or peptide 70 (residues 415-430), and with the mammalian peptide 5.
Rats were injected 3 times intraperitoneally (IP), with one week intervals between injections before induction of AA with MT.

NOD mice = experiment: Peptide 6 immunization of NOD mice: onset of diabetes and antibodies by ELISA; format: in vivo, mouse
Experimental: Naive NOD mice were immunized 3 times intradermally (I.D.) with 100 μg peptide 6 (SEQ ID: No. 2) in CFA and IFA. Control mice received PBS. Mice were monitored for the onset of diabetes by glucose test and for anti-peptide 6 or anti-HSP 65 antibodies by ELISA. Mice immunized with the peptide developed anti-peptide 6 as well as anti-HSP 65 antibodies as detected by OD (1.52±0.07 and 1.43±0.13 respectively) in comparison to CFA immunized mice (0.05±0.01 and 0.01±0.01) and control mice (0.09±0.06 and 0.16±0.16).
To test whether active immunization with the bacterial HSP peptide 6 (SEQ ID: No. 2) can induce protective immunoglobulins against other autoimmune disorders, for instance autoimmune diabetes, NOD mice were immunized with the mycobacterial peptide 6 (“protective” peptide). Naive NOD mice were immunized 3 times I.D. with either 100 μg peptide 6 in CFA and IFA or PBS (control). Mice were monitored for the onset of diabetes by glucose test (appearance of hyperglycemia) and for anti-peptide 6 or […] antibodies by ELISA. Mice immunized with the peptide developed anti-peptide 6 as well as anti-HSP 65 antibodies as reflected by OD (1.52±0.07 and 1.43±0.13 respectively) in comparison to CFA immunized mice (0.05±0.Oland 0.01±0.01) and control mice (0.09±0.06 and 0.16±0.16).

rat immunoglobulins = experiment: ELISA: antibodies of rat sera to Mycobacterial HSP 65 and its peptides; format: binding
DBA/1 mice = experiment: Modulation of collagen arthritis in DBA/1 mice; format: in vivo, mouse; details: active vaccination
Lewis rats [2] = experiment: Modulation of Adjuvant Arthritis by pre-immunization with HSP peptides; format: in vivo, rat; details: 3 IP injections at one week intervals before AA induction with MT, FIG. 4
[3] = NOD mice immunized 3 times I.D. with 100 μg peptide 6 in CFA and IFA, ELISA

Sequence: GPKGRNVVLEKKWGAP [Peptide 6]
- Anti HSP Antibodies in Immunized Lewis Rats, Antigen M5 (Lewis rats [1]; antigen M5): − (<O. 15 = −)
- Anti HSP Antibodies in Immunized Lewis Rats, Antigen MT-HSP 65 (Lewis rats [1]; antigen MT-HSP 65): ++ (0.46-0.75 = ++)
- Anti HSP Antibodies in Immunized Lewis Rats, Antigen 6 (Lewis rats [1]; antigen peptide 6): ++ (0.46-0.75 = ++)
- Anti HSP Antibodies in Immunized Lewis Rats, Antigen 7 (Lewis rats [1]; antigen peptide 7): − (<O. 15 = −)
- anti-HSP 65 antibodies (NOD mice; [3]): 1.43±0.13 OD
- anti-peptide 6 antibodies (NOD mice; [3]): 1.52±0.07 OD
- appearance of the diabetic symptoms (NOD mice; NOD mice, glucose test, FIG. 7): clearly delayed
- number of sick mice (NOD mice; NOD mice, peptide-6 vaccinated group): significantly lowered
- diabetes disease severity (NOD mice; NOD mice, FIG. 7): significantly reduced
- Antibodies to Mycobacterial HSP 65 Peptides (rat immunoglobulins; strain BN-6w): + (0.16-0.45 = +)
- Antibodies to Mycobacterial HSP 65 Peptides (rat immunoglobulins; strain Lew-4m): + (0.16-0.45 = +)
- Antibodies to Mycobacterial HSP 65 Peptides (rat immunoglobulins; strain Lew-6w): − (<O. 15 = −)
- Antibodies to Mycobacterial HSP 65 Peptides (rat immunoglobulins; strain Lew-9m): + (0.16-0.45 = +)
- Antibodies to Mycobacterial HSP 65 Peptides (rat immunoglobulins; strain Lew-Post AA): +++ (>0.75 = +++)
- murine collagen arthritis (DBA/1 mice): suppressed significantly
- AA disease severity after pre-immunization (Lewis rats [2]): significant suppression of disease severity
